≈ marks a conversion by molar mass, not a printed value.

The target of test [1] is Penicillin-binding protein 2B (Streptococcus pneumoniae (strain ATCC BAA-255 / R6), UniProt P0A3M6, A619G/T446A). Nature of the test: Inhibition of Bocillin FL binding to PBP2b Thr446Ala/Ala-619-Gly mutant in laboratory-derived Streptococcus pneumoniae isolate R6.
Test [2] deals with T1, Penicillin-binding protein 2B (Streptococcus pneumoniae (strain ATCC BAA-255 / R6), UniProt P0A3M6, T446A). In words: Inhibition of Bocillin FL binding to PBP2b Thr446Ala mutant in laboratory-derived Streptococcus pneumoniae isolate R6.
T1 sequence (P0A3M6 whole entry T446A): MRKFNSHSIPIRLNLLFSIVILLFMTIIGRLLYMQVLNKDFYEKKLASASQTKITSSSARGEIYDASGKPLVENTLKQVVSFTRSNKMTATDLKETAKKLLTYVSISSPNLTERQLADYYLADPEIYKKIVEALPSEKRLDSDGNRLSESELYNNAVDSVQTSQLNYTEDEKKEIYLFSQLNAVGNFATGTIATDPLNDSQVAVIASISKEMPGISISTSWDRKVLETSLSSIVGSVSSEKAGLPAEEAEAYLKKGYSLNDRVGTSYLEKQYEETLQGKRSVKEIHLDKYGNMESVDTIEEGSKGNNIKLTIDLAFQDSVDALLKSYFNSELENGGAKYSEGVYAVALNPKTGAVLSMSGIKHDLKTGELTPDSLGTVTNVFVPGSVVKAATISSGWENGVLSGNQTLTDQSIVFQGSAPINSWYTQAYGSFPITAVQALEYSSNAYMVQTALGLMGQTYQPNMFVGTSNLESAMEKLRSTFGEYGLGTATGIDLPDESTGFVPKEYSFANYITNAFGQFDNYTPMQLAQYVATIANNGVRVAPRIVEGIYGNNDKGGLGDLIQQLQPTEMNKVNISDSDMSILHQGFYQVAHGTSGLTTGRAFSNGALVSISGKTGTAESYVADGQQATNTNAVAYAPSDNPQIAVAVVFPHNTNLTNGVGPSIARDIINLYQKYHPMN
For test [3], the target named is T1, Penicillin-binding protein 2B. In words: Inhibition of Bocillin FL binding to PBP2b PBP2b 443SSNA mutant in Streptococcus pneumoniae isolate 8009 harboring E333G, N470K, E476G, T489S, E506D, and N538D mutant genes.
Test [4] concerns Streptococcus pneumoniae. Nature of the test: Antimicrobial activity against penicillin resistant Streptococcus pneumoniae isolate 8819 harboring PBP2b 443SSNA mutant by broth microdilution method. It counts as functional.
Test [5] addresses T2, Penicillin-binding protein 2B (Streptococcus pneumoniae serotype 4 (strain ATCC BAA-334 / TIGR4), UniProt P0A3M5).
T2 sequence (P0A3M5 whole entry): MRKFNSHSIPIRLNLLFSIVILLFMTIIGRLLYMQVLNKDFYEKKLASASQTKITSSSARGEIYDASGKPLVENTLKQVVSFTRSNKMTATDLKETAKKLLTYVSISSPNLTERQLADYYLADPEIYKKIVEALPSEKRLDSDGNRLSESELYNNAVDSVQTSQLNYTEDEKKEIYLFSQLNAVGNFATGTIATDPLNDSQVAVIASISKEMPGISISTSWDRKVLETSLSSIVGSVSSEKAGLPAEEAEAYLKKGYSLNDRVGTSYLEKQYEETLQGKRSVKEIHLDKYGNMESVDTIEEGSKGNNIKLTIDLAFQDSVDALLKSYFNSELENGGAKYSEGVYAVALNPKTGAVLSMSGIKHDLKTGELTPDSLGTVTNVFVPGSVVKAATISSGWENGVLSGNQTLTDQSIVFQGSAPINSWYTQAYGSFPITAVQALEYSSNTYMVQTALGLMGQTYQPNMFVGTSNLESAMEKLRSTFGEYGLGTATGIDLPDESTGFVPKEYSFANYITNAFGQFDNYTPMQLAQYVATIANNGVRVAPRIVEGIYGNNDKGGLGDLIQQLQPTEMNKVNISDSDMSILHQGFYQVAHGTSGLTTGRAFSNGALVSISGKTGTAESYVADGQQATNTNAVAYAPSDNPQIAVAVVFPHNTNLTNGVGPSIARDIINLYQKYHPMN
Nature of the test: Inhibition of Bocillin FL binding to Streptococcus pneumoniae isolate 8865 PBP2b.

Test [6] deals with Streptococcus pneumoniae. In words: Antimicrobial activity against penicillin sensitive Streptococcus pneumoniae isolate 8865 by broth microdilution method. It counts as functional.
In test [7] the test system is Streptococcus pneumoniae. In words: Antimicrobial activity against laboratory-derived Streptococcus pneumoniae isolate R6 by broth microdilution method. It counts as functional.
Test [8] has as its target Penicillin-binding protein 2B (Streptococcus pneumoniae (strain ATCC BAA-255 / R6), UniProt P0A3M6, A619G). In words: Inhibition of Bocillin FL binding to PBP2b in Streptococcus pneumoniae isolate 8819 harboring E333G, I361L, E369D, S412P, N422Y, T426K, Q427L, Q438E, L455I, S473T, E476G, S480A, T489A, N538D, D561E, Q564K, and D625G mutant genes.
In test [9] the test system is Streptococcus pneumoniae. In words: Antimicrobial activity against penicillin intermediate resistant Streptococcus pneumoniae isolate 8009 harboring PBP2b 443SSNA mutant by broth microdilution method. It counts as functional.
Test [10] deals with T1, Penicillin-binding protein 2B. Nature of the test: Inhibition of Streptococcus pneumoniae isolate 8882 Bocillin FL binding to PBP2b 443SSNA mutant.
The test system of test [11] is Streptococcus pneumoniae. In words: Antimicrobial activity against laboratory-derived Streptococcus pneumoniae isolate R6 harboring Thr446Ala/Ala-619-Gly mutant gene by broth microdilution method. It counts as functional.
Test [12] relates to Streptococcus pneumoniae. Nature of the test: Antimicrobial activity against penicillin intermediate resistant Streptococcus pneumoniae isolate 8882 harboring PBP2b 443SSNA mutant by broth microdilution method. It counts as functional.
The subject of test [13] is Streptococcus pneumoniae. Nature of the test: Antimicrobial activity against laboratory-derived Streptococcus pneumoniae isolate R6 harboring Thr446Ala mutant gene by broth microdilution method. It counts as functional.
Test [14] deals with T2, Penicillin-binding protein 2B. In words: Inhibition of Bocillin FL binding to PBP2b in laboratory-derived Streptococcus pneumoniae isolate R6.

Sequence of Penicillin-binding protein 2B (Streptococcus pneumoniae (strain ATCC BAA-255 / R6), UniProt P0A3M6, A619G) (P0A3M6 whole entry A619G): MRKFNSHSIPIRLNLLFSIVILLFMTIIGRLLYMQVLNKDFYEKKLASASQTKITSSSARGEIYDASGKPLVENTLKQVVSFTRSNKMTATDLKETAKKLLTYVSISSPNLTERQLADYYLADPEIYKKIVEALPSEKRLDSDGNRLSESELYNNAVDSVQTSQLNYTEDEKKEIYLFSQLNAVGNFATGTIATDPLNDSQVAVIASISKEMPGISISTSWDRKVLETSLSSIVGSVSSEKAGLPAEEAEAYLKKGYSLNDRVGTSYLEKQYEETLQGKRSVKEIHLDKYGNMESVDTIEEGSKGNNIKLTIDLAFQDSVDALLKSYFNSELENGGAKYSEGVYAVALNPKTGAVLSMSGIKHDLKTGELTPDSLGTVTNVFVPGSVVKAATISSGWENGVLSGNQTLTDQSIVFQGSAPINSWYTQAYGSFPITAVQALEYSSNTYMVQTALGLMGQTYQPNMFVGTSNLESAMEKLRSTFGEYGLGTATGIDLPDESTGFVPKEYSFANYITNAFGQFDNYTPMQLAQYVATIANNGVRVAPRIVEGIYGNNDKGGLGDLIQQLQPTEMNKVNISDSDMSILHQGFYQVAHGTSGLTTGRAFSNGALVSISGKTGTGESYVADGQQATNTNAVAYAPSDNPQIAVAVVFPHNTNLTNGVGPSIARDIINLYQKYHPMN
Sequence of Penicillin-binding protein 2B (Streptococcus pneumoniae (strain ATCC BAA-255 / R6), UniProt P0A3M6, A619G/T446A) (P0A3M6 whole entry T446A/A619G): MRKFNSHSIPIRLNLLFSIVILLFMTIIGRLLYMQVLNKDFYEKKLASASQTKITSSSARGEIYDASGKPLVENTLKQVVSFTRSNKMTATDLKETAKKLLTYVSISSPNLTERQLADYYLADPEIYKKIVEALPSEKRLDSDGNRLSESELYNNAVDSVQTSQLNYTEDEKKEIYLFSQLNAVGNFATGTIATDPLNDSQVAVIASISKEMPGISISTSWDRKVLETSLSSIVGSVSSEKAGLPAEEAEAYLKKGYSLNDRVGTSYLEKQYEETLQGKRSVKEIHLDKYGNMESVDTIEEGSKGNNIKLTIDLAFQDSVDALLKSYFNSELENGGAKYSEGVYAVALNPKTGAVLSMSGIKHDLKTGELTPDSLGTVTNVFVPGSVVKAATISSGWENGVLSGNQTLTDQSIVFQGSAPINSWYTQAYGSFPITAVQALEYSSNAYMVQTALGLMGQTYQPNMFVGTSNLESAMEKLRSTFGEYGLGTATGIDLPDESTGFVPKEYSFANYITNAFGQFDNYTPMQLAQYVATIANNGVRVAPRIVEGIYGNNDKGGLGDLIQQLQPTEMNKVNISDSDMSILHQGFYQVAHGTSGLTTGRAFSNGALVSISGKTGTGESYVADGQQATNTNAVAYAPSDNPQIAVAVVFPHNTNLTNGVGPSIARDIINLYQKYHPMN

With `Nc1nc(/C(=N/O)C(=O)N[C@@H]2C(=O)N3C(C(=O)O)=C(/C=C4\CCN([C@@H]5CCNC5)C4=O)CS[C@H]23)ns1` [CEFTOBIPROLE], the IC50 in test [1] is 3.18 µM; in [2], 1.31 µM; in test [3], 1.68 µM; in [5], 0.112 µM; in [8] it was over 15 µM; in [10], 2.24 µM. Besides, the 50% inhibitory concentration (IC50) in [14] was 0.112 µM. Also, the minimum inhibitory concentration (MIC) is 1 µg/mL (≈ 1.87 µM) against Streptococcus pneumoniae [4]; 0.008 µg/mL (≈ 0.015 µM) against Streptococcus pneumoniae [6]; 0.002 µg/mL (≈ 0.00374 µM) in the test on Streptococcus pneumoniae [7]; 0.015 µg/mL (≈ 0.0281 µM) in the test on Streptococcus pneumoniae [9]; 0.004 µg/mL (≈ 0.00748 µM) with Streptococcus pneumoniae [11]; 0.008 µg/mL (≈ 0.015 µM) in the test with Streptococcus pneumoniae [12]. The compound further came in with an MIC with Streptococcus pneumoniae [13] of 0.002 µg/mL (≈ 0.00374 µM).

In the case of `CO/N=C(\C(=O)N[C@@H]1C(=O)N2C(C(=O)O)=C(CSc3nc(=O)c(O)nn3C)CS[C@H]12)c1csc(N)n1` [CEFTRIAXONE], the IC50 in test [3], in test [5], in test [8], in test [10] and in test [14] was over 14.4 µM throughout. Besides, the minimal inhibitory concentration (MIC) in the test on Streptococcus pneumoniae [4] was 8 µg/mL (≈ 14.4 µM); against Streptococcus pneumoniae [6], 0.03 µg/mL (≈ 0.0541 µM); against Streptococcus pneumoniae [7], 0.008 µg/mL (≈ 0.0144 µM); in the test with Streptococcus pneumoniae [9] it was 0.06 µg/mL (≈ 0.108 µM); in the test on Streptococcus pneumoniae [11], 0.015 µg/mL (≈ 0.027 µM); with Streptococcus pneumoniae [12], 0.06 µg/mL (≈ 0.108 µM). In the test on Streptococcus pneumoniae [13], this compound returned a minimal inhibitory concentration (MIC) of 0.008 µg/mL (≈ 0.0144 µM).

In the case of `CC1(C)S[C@@H]2[C@H](NC(=O)Cc3ccccc3)C(=O)N2[C@H]1C(=O)O` [PENICILLIN G], the concentration for half-maximal inhibition (IC50) in test [1] was 5.38 µM; in test [2], 2.39 µM; in test [3], 7.48 µM; in test [5], 0.0239 µM; in test [8], over 23.9 µM; in [10], 7.48 µM. This compound gave an IC50 in test [14] of 0.449 µM. Moreover, the MIC is 8 µg/mL (≈ 23.9 µM) in the test on Streptococcus pneumoniae [4]; at most 0.015 µg/mL in the test with Streptococcus pneumoniae [6]; 0.015 µg/mL (≈ 0.0449 µM) in the test with Streptococcus pneumoniae [7]; 0.12 µg/mL (≈ 0.359 µM) in the test with Streptococcus pneumoniae [9]; 0.03 µg/mL (≈ 0.0897 µM) in the test with Streptococcus pneumoniae [11]; 0.12 µg/mL (≈ 0.359 µM) against Streptococcus pneumoniae [12]. This compound also showed an MIC with Streptococcus pneumoniae [13] of 0.015 µg/mL (≈ 0.0449 µM).

The values are drawn from ChEMBL document CHEMBL1671743, “Affinity of ceftobiprole for penicillin-binding protein 2b in Streptococcus pneumoniae strains with various susceptibilities to penicillin” (Antimicrob Agents Chemother, 2010).
